From ChEMBL document CHEMBL3992487 (Medchemcomm, 2016) come the findings set out here.

Some results are limits rather than exact numbers.

Data set [1] can be described thus: Dissociation constant, pKa of the compound. The format is physicochemical.
A short description of data set [2]: Intrinsic clearance in human hepatocytes assessed per million cells. Format: ADME, cell-based, Hepatocyte. Conditions: read-out: CLH.
Data set [3] can be described thus: Intrinsic clearance in human liver microsomes. Format: ADME, microsome. The following applies: read-out: CLH.
Data set [4] is described as follows: Oral bioavailability in rat. Format: ADME, organism-based. Conditions: in vivo.
A short description of data set [5]: Clearance in rat blood. The format is ADME.

What is called pKa is the pH at which an ionisable group is half protonated. `COC[C@@](C)(N)c1nc(-c2ccc(OC(F)(F)F)cc2)c[nH]1` registered a pKa in data set [1] of 7.1.

For `NC(CF)(CF)c1nc(-c2ccc(OC(F)(F)F)cc2)c[nH]1`, the pKa in data set [1] is 5.9.

On to `CC(C)(N)c1nc(-c2ccc(OC(F)(F)F)cc2)c[nH]1`, for which the hepatocyte CLint in data set [2] was less than 6 µL/min/1e6 cells. The microsomal CLint in data set [3] was found to be 8 µL/min/mg. The same compound returned a pKa in data set [1] of 7.9.

By bioavailability is commonly meant the share of a dose that reaches the circulation, judged against a reference dose that is usually intravenous. A high value points to much systemic uptake. A word on the clearance: it is the volume of plasma or blood freed of the substance per unit of time. Read a low clearance as a low capacity for elimination. In turn, `NC1(Cc2nc(-c3ccc(OC(F)(F)F)cc3)c[nH]2)COC1` yielded a bioavailability in data set [4] of 49 to 52%. Besides, the clearance in data set [5] stood at 5 mL/min/kg. In data set [1], the pKa worked out at 6.4.

Regarding `C[C@](N)(CF)c1nc(-c2ccc(OC(F)(F)F)cc2)c[nH]1`, the pKa in data set [1] was 6.4.
